{"source": "patent US8841087B2", "about": "(priority 2008, dated 2014)", "system": "clinical strains of Mycobacterium tuberculosis", "assay": "Reference phenotypic test of antibiotic sensitivity in solid medium", "type": "cell-based", "details": "six clinical strains", "data": [{"smiles": "CC[C@@H](CO)NCCN[C@@H](CC)CO", "note": "[ethambutol]", "values": [{"measurement": "sensitivity at critical concentration", "setting": "ethambutol, 5 μg/ml", "result": "sensitive"}]}, {"smiles": "NNC(=O)c1ccncc1", "note": "[isoniazid]", "values": [{"measurement": "sensitivity at critical concentration", "setting": "isoniazid, 0.2 μg/ml", "result": "sensitive"}]}, {"smiles": "[H]/N=C(/N)N[C@H]1[C@H](O)[C@@H](O)[C@H](O[C@@H]2O[C@@H](C)[C@](O)(C=O)[C@H]2O[C@@H]2O[C@@H](CO)[C@H](O)[C@@H](O)[C@@H]2NC)[C@@H](N/C(N)=N\\[H])[C@@H]1O", "note": "[streptomycin]", "values": [{"measurement": "sensitivity at critical concentration", "setting": "streptomycin, 5 μg/ml", "result": "sensitive"}]}]}
